Conditions: Liquid

CCCCCl [1-chlorobutane]
mass density [kg/m3]
Conditions	288.15 K	298.15 K	308.15 K	318.15 K
100 kPa	891.8	880.6	870	859.1
2000 kPa	893.6	882.6	872.1	861.5
4000 kPa	–	–	–	863.8
4100 kPa	895.6	884.9	874.4	–
6100 kPa	897.5	886.8	876.5	866.3
8100 kPa	899.4	888.7	878.6	868.7
10100 kPa	901.3	890.9	880.8	870.9
12100 kPa	903	892.8	882.9	873.1
14100 kPa	904.9	–	–	875.1
14200 kPa	–	894.7	884.9	–
16200 kPa	–	896.5	886.8	877.2
16300 kPa	906.7	–	–	–
18300 kPa	–	898.5	888.8	–
18400 kPa	908.5	–	–	879.3
20200 kPa	910.3	–	890.6	881.2
20400 kPa	–	900.2	–	–

CCCCCCCl [1-chlorohexane]
Conditions	mass density [kg/m3]
288.15 K, 100 kPa	882.7
288.15 K, 2000 kPa	884.4
288.15 K, 4100 kPa	886
288.15 K, 5900 kPa	887.5
288.15 K, 8100 kPa	889.2
288.15 K, 10100 kPa	890.7
288.15 K, 12200 kPa	892.3
288.15 K, 14200 kPa	893.8
288.15 K, 16200 kPa	895.2
288.15 K, 18200 kPa	896.7
288.15 K, 20200 kPa	898.3
298.15 K, 100 kPa	873.1
298.15 K, 2000 kPa	874.8
298.15 K, 4100 kPa	876.6
298.15 K, 6100 kPa	878.3
298.15 K, 8100 kPa	879.9
298.15 K, 10200 kPa	881.7
298.15 K, 12100 kPa	883.3
298.15 K, 14200 kPa	885
298.15 K, 16400 kPa	886.6
298.15 K, 18400 kPa	888.1
298.15 K, 20200 kPa	889.6
308.15 K, 100 kPa	864.3
308.15 K, 2000 kPa	866.1
308.15 K, 4100 kPa	868
308.15 K, 6100 kPa	869.7
308.15 K, 8100 kPa	871.5
308.15 K, 10200 kPa	873.3
308.15 K, 12100 kPa	875
308.15 K, 14200 kPa	876.7
308.15 K, 16200 kPa	878.3
308.15 K, 18300 kPa	879.9
308.15 K, 20200 kPa	881.5
318.15 K, 100 kPa	855.1
318.15 K, 2000 kPa	857
318.15 K, 4000 kPa	858.9
318.15 K, 6100 kPa	860.9
318.15 K, 8100 kPa	862.7
318.15 K, 10100 kPa	864.6
318.15 K, 11900 kPa	866.1
318.15 K, 14100 kPa	868.1
318.15 K, 16100 kPa	869.9
318.15 K, 18000 kPa	871.4
318.15 K, 20000 kPa	872.8

CCCCCCCCCl [1-chlorooctane]
Conditions	mass density [kg/m3]
288.15 K, 100 kPa	877.3
288.15 K, 2000 kPa	878.8
288.15 K, 4000 kPa	880.2
288.15 K, 6000 kPa	881.6
288.15 K, 8000 kPa	883
288.15 K, 10000 kPa	884.4
288.15 K, 11900 kPa	885.8
288.15 K, 13900 kPa	887.1
288.15 K, 16000 kPa	888.4
288.15 K, 18000 kPa	889.7
288.15 K, 20100 kPa	891.2
298.15 K, 100 kPa	868.8
298.15 K, 2000 kPa	870.2
298.15 K, 4100 kPa	871.8
298.15 K, 6100 kPa	873.3
298.15 K, 8100 kPa	874.8
298.15 K, 10000 kPa	876.2
298.15 K, 12100 kPa	877.8
298.15 K, 14200 kPa	879.3
298.15 K, 16300 kPa	880.7
298.15 K, 18300 kPa	882.1
298.15 K, 20200 kPa	883.4
308.15 K, 100 kPa	861.4
308.15 K, 2000 kPa	862.8
308.15 K, 4000 kPa	864.4
308.15 K, 6000 kPa	865.9
308.15 K, 7900 kPa	867.5
308.15 K, 10100 kPa	869.1
308.15 K, 12000 kPa	870.5
308.15 K, 14000 kPa	872
308.15 K, 15900 kPa	873.3
308.15 K, 18000 kPa	874.8
308.15 K, 20000 kPa	876.5
318.15 K, 100 kPa	852.9
318.15 K, 2000 kPa	854.5
318.15 K, 4000 kPa	856.2
318.15 K, 6000 kPa	857.9
318.15 K, 8000 kPa	859.5
318.15 K, 10000 kPa	861.2
318.15 K, 12000 kPa	862.8
318.15 K, 14000 kPa	864.3
318.15 K, 16000 kPa	865.8
318.15 K, 18000 kPa	867.3
318.15 K, 20100 kPa	868.9

CC(=O)N(C)C [N,N-dimethylethanamide]
Conditions	mass density [kg/m3]
288.15 K, 100 kPa	945.7
288.15 K, 2000 kPa	946.7
288.15 K, 4000 kPa	947.8
288.15 K, 6000 kPa	949
288.15 K, 8100 kPa	950.1
288.15 K, 9900 kPa	951.1
288.15 K, 12000 kPa	952.2
288.15 K, 13900 kPa	953.2
288.15 K, 16000 kPa	954.3
288.15 K, 18100 kPa	955.4
288.15 K, 20000 kPa	956.5
298.15 K, 100 kPa	937
298.15 K, 2000 kPa	938.1
298.15 K, 4100 kPa	939.4
298.15 K, 6100 kPa	940.6
298.15 K, 8100 kPa	941.8
298.15 K, 10000 kPa	943
298.15 K, 12100 kPa	944.1
298.15 K, 14200 kPa	945.3
298.15 K, 16300 kPa	946.4
298.15 K, 18400 kPa	947.5
298.15 K, 20100 kPa	948.6
308.15 K, 100 kPa	927.9
308.15 K, 2000 kPa	929.1
308.15 K, 4100 kPa	930.4
308.15 K, 6100 kPa	931.6
308.15 K, 8100 kPa	932.8
308.15 K, 10100 kPa	934
308.15 K, 12100 kPa	935.3
308.15 K, 14200 kPa	936.5
308.15 K, 16300 kPa	937.6
308.15 K, 18200 kPa	938.7
308.15 K, 20200 kPa	939.9
318.15 K, 100 kPa	918.7
318.15 K, 2000 kPa	919.8
318.15 K, 4000 kPa	921.2
318.15 K, 6000 kPa	922.5
318.15 K, 8000 kPa	923.8
318.15 K, 9900 kPa	925
318.15 K, 12000 kPa	926.3
318.15 K, 14000 kPa	927.5
318.15 K, 16000 kPa	928.7
318.15 K, 18100 kPa	930
318.15 K, 20000 kPa	931.3

CN(C)C=O [dimethylformamide]
Conditions	mass density [kg/m3]
288.15 K, 100 kPa	953.4
288.15 K, 2100 kPa	954.5
288.15 K, 4000 kPa	955.6
288.15 K, 6100 kPa	956.8
288.15 K, 7900 kPa	957.8
288.15 K, 9900 kPa	958.9
288.15 K, 12100 kPa	960.1
288.15 K, 14000 kPa	961.2
288.15 K, 16000 kPa	962.2
288.15 K, 18000 kPa	963.3
288.15 K, 19800 kPa	964.3
298.15 K, 100 kPa	943.8
298.15 K, 2000 kPa	945
298.15 K, 4100 kPa	946.2
298.15 K, 6100 kPa	947.4
298.15 K, 8100 kPa	948.6
298.15 K, 10100 kPa	949.8
298.15 K, 12100 kPa	951
298.15 K, 14100 kPa	952.1
298.15 K, 16300 kPa	953.3
298.15 K, 18300 kPa	954.3
298.15 K, 20100 kPa	955.5
308.15 K, 100 kPa	935
308.15 K, 2000 kPa	936.2
308.15 K, 4100 kPa	937.6
308.15 K, 6100 kPa	938.9
308.15 K, 8100 kPa	940
308.15 K, 10100 kPa	941.2
308.15 K, 12100 kPa	942.5
308.15 K, 14300 kPa	943.7
308.15 K, 16300 kPa	944.9
308.15 K, 18300 kPa	946
308.15 K, 20200 kPa	947
318.15 K, 100 kPa	925.5
318.15 K, 2100 kPa	926.9
318.15 K, 4000 kPa	928.3
318.15 K, 6000 kPa	929.6
318.15 K, 7900 kPa	930.8
318.15 K, 10200 kPa	932.2
318.15 K, 12000 kPa	933.4
318.15 K, 14000 kPa	934.5
318.15 K, 16000 kPa	935.8
318.15 K, 18000 kPa	937
318.15 K, 20200 kPa	938.1

From the NIST ThermoML archive (doi:10.1021/je700096m)
